Data: BindingDB's records for doi:10.7270/Q2V986KM (Burnham Center For Chemical Genomics, 2011)

molecular target: T1, Carboxy-terminal domain RNA polymerase II polypeptide A small phosphatase 1 (Homo sapiens, UniProt Q9GZU7); assay: CTDSP1 inhibitors, concentration-response, biochemical, absorbance-based, ultra-high-throughput screen actives (AID 540297)
T1 sequence (Q9GZU7 whole entry): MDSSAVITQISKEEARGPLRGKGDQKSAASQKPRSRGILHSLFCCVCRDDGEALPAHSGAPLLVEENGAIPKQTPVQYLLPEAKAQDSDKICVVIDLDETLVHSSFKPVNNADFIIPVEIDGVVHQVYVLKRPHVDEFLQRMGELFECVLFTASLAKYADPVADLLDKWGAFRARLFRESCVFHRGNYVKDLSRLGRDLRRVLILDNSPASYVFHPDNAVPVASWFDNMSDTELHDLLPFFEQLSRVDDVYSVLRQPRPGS

SMILES | IC50 [µM]
COc1cccc(N/C(C)=[N+](\C)CCNS(=O)(=O)c2ccc(Cl)cc2)c1 [SMR000672481] | 3.46
CCOc1cc(CN=Nc2nc(O)c(CC(=O)O)s2)ccc1OCc1ccc(Cl)cc1Cl [2-[2-[(N''E)-N''-[4-(2,4-dichlorobenzyl)oxy-3-ethoxy-benzylidene]hydrazino]-4-keto-2-thiazolin-5-yl]acetic acid] | 2.32
O=C1Nc2ccc([N+](=O)[O-])cc2/C1=N/NC(=O)c1ccccc1Cl [2-chloro-N'-(5-nitro-2-oxoindol-3-yl)benzohydrazide] | 6.44
O=C(O)CNC(=O)Cc1sc(NNc2nc(O)cs2)nc1O | 5.27
Cc1nnc(NS(=O)(=O)c2ccc(/N=N/c3ccc(N)nc3N)cc2)s1 | 11.5
O=C(N/N=C/C1C=C(Cl)C=C([N+](=O)[O-])C1=O)c1cc(-c2ccccn2)nc2ccccc12 (stereo not drawn) [MLS000773704] | 1.85
Cc1ccc2c(c1)=C(NNC(=O)c1ccc(NS(=O)(=O)c3cccs3)cc1)C(=O)N=2 [N-[4-[[(5-methyl-2-oxoindol-3-yl)amino]carbamoyl]phenyl]thiophene-2-sulfonamide] | 11.5
O=C(CCCC(=O)Nc1cccc(Br)c1)N/N=C/C1C=C([N+](=O)[O-])C=CC1=O (stereo not drawn) | 6.26
CCOc1ccccc1C(=O)c1cc(O)c2ccccc2c1O [2-[(2-ethoxyphenyl)-oxidanyl-methyl]naphthalene-1,4-dione] | 4.16
COC(=O)C1C(COc2ccccc2)=NC(=O)NC1c1ccc2ccccc2c1 (stereo not drawn) | 13.8
CON=C(C(=O)N[C@@H]1C(=O)N2C(C(=O)O)=C(COC(N)=O)CS[C@H]12)c1ccco1 | 2.09
COc1ccc(N/C(C)=[N+](\C)CCNS(=O)(=O)c2ccc(Cl)cc2)cc1 | 3.29
CCOc1cc(CN=Nc2nc(O)c(CC(=O)O)s2)ccc1OCc1ccc(Cl)cc1 [2-[2-[2-[[4-[(4-chlorophenyl)methoxy]-3-ethoxy-phenyl]methylidene]hydrazinyl]-4-oxidanylidene-1,3-thiazol-5-yl]ethanoic acid] | 7.12
C/C(Nc1ccc(F)cc1)=[N+](/C)CCNS(=O)(=O)c1ccc(Cl)cc1 | 5.86
O=C(NN=C/C(Cl)=C/c1ccccc1)c1ccc2c(c1)OCO2 [SMR001240783] | 8.6
O=C1C=CC(/C=C/c2nc(O)c([N+](=O)[O-])c(=O)[nH]2)C=C1O (stereo not drawn) [SMR000524347] | 36.1
COc1ccc(/C=C/C(=O)Oc2cccc(C=NNC(=O)c3cccc(F)c3)c2)cc1 [[3-[[(3-fluorobenzoyl)hydrazinylidene]methyl]phenyl] (E)-3-(4-methoxyphenyl)prop-2-enoate] | 12.8
CCN(CC)P(=O)(NC(=O)C(Cl)(Cl)Cl)N(CC)CC [MLS000564159] | 2.49
